From patent US8906944B2, “Compounds as tyrosine kinase modulators” (Allergan, Inc., priority 2009, dated 2014)
pIC50: −log10 of the molar value.

Experiments:
[1] = target: T1, human VEGF receptor (VEGFR-2) (Homo sapiens, UniProt P35968); test: VEGFR2 kinase assay; assay type: biochemical; conditions: His-VEGFR-2 cytoplasmic domain, 3.6 μM ATP; Table IV, amide or urea linker; read-out: VEGFR2 Enzyme IC50
T1 construct: The cytoplasmic domain of the human VEGF receptor (VEGFR-2) was expressed; His; made in house; host or cells: insect cells (baculovirus)
In short: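 His-tagged VEGFR-2 cytoplasmic domain from baculovirus-infected insect cells phosphorylating plate-bound poly-Glu-Tyr (4:1). IC50 from blank-subtracted optical density versus compound concentration.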

[2] = target: T2, PDGFβ (Homo sapiens, UniProt P09619); test: PDGFβ enzyme assay; assay type: biochemical; conditions: Table IV, amide or urea linker
[3] = target: T2, PDGFβ; test: PDGF stimulated Ca2+ signal in vitro (FLIPR); assay type: cell-based; design: host or cells: NHDF-Ad (normal human dermal fibroblasts); conditions: NHDF-Ad, PDGF stimulation 10 ng/mL; Table IV, amide or urea linker; read-out: PDGFβ Cellular IC50
[4] = target: VEGFR1 (Homo sapiens, UniProt P17948); test: VEGFR1 enzyme assay; assay type: biochemical; conditions: Table IV, amide or urea linker
[5] = target: VEGFR2 (Homo sapiens, UniProt P35968); test: VEGF stimulated Ca++ signal in vitro (FLIPR)
VEGFR2, sequence (P35968 20-1356): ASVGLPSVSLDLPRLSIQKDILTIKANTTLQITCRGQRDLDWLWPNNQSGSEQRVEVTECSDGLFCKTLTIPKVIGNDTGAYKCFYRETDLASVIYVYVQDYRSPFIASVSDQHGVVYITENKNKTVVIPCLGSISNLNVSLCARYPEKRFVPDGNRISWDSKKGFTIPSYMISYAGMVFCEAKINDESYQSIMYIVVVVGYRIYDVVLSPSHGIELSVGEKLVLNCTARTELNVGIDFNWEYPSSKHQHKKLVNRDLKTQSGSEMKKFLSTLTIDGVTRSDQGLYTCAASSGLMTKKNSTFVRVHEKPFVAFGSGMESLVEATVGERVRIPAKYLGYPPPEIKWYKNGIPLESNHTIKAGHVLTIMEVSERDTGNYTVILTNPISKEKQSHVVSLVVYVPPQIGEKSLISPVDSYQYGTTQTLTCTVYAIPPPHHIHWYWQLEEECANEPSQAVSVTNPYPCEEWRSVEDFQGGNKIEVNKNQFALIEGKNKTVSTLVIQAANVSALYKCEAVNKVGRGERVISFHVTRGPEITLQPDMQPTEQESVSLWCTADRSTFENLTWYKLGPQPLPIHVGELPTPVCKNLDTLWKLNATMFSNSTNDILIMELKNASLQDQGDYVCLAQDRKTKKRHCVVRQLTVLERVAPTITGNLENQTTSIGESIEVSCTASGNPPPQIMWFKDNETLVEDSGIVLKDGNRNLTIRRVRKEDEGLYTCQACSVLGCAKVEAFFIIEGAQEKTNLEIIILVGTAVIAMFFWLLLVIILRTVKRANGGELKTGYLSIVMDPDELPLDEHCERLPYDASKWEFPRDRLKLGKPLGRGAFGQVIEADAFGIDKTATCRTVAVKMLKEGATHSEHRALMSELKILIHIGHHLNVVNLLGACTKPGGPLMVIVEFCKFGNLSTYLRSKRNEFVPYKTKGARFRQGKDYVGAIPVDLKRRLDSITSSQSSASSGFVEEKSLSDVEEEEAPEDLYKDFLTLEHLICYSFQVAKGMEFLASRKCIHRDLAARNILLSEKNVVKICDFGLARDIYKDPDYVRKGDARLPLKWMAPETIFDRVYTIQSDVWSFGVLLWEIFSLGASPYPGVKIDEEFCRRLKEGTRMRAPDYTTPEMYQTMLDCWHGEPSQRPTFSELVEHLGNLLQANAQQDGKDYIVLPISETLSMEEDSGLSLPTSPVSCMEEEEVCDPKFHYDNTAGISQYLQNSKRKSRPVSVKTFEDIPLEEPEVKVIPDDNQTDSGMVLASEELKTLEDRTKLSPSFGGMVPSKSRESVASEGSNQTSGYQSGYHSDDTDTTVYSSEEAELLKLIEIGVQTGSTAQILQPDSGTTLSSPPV
Experimental: VEGF Stimulated Ca^++Signal in Vitro
Automated FLIPR (Fluorometric Imaging Plate Reader) technology was used to screen for inhibitors of VEGF induced increases in intracellular calcium levels in fluorescent dye loaded endothelial cells. HUVEC (human umbilical vein endothelial cells) (Clonetics) were seeded in 96-well fibronectin coated black-walled plates overnight at 37 degree. C./5% CO2. […] C. Cells were washed 4 times (Original Cell Wash, Labsystems) to remove extracellular dye. […] Data were generated by determining max-min fluorescence levels for unstimulated, stimulated, and drug treated samples. IC50 values for test compounds were calculated from % inhibition of VEGF stimulated responses in the absence of inhibitor.

T1 sequence (P35968 786-1356 limits assumed): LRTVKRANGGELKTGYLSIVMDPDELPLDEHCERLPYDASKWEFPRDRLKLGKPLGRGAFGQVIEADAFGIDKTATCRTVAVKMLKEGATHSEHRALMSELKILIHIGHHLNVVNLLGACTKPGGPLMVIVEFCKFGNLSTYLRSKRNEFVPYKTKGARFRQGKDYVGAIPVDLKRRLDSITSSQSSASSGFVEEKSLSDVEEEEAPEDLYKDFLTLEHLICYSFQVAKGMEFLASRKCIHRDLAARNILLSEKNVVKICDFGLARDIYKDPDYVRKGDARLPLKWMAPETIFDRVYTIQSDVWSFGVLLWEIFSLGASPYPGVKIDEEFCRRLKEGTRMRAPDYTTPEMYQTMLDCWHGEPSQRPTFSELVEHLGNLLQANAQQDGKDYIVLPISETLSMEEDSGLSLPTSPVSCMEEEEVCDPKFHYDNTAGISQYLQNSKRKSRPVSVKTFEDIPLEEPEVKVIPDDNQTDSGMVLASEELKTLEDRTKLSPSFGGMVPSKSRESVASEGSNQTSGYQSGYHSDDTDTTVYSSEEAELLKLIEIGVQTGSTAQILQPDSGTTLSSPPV
VEGFR1, sequence (P17948 27-1338, species assumed): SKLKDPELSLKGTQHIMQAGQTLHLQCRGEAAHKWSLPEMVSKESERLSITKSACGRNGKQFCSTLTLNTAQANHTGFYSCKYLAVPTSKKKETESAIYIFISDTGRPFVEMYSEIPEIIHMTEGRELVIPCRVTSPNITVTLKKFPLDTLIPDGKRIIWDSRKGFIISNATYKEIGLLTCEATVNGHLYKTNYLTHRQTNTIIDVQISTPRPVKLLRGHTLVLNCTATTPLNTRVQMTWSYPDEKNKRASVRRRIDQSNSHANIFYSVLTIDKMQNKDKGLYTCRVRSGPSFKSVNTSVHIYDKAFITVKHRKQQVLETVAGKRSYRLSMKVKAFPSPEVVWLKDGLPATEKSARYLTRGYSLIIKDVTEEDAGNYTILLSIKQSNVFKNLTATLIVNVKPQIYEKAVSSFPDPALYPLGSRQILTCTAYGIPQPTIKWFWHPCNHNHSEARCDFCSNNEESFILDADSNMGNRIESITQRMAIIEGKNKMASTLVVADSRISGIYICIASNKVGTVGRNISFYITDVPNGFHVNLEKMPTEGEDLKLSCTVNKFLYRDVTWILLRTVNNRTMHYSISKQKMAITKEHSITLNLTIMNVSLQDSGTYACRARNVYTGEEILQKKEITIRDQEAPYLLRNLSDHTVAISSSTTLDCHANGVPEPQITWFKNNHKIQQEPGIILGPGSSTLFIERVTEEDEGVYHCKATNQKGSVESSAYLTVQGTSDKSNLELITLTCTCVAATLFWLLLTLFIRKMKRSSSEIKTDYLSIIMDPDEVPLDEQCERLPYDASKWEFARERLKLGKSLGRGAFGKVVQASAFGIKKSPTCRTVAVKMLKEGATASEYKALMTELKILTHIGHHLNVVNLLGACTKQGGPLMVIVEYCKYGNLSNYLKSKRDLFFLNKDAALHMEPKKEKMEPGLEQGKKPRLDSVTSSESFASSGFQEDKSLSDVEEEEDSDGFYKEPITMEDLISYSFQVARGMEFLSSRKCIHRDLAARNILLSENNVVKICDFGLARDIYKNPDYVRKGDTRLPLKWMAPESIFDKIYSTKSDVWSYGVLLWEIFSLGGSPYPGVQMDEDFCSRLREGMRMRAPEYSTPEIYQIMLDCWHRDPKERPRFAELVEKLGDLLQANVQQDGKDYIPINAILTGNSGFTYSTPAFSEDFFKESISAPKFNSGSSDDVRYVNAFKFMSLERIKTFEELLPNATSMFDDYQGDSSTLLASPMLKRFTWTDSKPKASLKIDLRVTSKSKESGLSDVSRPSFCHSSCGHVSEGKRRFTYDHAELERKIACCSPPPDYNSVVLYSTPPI
T2 sequence (P09619 33-1106): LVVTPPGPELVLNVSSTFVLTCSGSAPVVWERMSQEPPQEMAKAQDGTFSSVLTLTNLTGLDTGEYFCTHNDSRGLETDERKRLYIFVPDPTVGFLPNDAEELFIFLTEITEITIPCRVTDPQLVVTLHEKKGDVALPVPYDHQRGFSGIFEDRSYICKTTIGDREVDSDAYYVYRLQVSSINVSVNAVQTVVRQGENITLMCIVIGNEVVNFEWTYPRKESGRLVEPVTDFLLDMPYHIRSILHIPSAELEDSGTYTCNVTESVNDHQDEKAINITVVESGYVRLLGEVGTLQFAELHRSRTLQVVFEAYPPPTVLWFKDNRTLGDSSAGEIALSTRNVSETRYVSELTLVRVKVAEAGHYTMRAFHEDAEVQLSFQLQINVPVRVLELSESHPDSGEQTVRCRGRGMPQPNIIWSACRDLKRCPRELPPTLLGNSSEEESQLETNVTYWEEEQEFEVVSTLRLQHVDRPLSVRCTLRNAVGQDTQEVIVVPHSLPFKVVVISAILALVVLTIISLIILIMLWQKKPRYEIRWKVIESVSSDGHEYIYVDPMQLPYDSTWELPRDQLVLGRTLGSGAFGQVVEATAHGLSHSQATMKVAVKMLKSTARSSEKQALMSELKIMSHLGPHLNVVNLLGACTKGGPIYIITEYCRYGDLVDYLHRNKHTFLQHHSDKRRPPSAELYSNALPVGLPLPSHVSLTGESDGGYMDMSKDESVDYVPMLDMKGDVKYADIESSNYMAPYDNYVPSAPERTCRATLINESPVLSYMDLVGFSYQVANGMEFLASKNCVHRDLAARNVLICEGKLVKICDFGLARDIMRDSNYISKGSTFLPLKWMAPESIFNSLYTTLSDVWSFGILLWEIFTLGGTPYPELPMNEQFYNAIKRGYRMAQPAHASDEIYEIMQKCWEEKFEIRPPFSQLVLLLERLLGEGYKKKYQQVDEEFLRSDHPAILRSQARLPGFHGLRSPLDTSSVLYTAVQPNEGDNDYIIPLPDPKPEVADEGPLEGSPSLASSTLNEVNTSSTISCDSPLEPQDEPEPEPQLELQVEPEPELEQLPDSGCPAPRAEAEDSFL

Structure (SMILES)	pIC50 [1]	pIC50 [2]	pIC50 [3]	pIC50 [4]	pIC50 [5]
CCNC(=O)[C@H](CCC(=O)OC)NC(=O)c1c[nH]c(-c2cc(Oc3cc(C(=O)Nc4cc(C)ccc4F)ccc3F)ccn2)c1 [Example 261, methyl 5-(ethylamino)-4-[({5-[4-(2-fluoro-5-{[(2-fluoro-5-methylphenyl)amino]carbonyl}phenoxy)pyridin-2-yl]-1H-pyrrol-3-yl}carbonyl)amino]-5-oxopentanoate]	7.92	7.00	6.97		
COC(=O)CC[C@H](NC(=O)c1c[nH]c(-c2cc(Oc3ccc(NC(=O)Nc4cccc(C)c4)c(F)c3)ccn2)c1)C(=O)OC [Example 230, dimethyl 2-{[(5-{4-[3-fluoro-4-({[(3-methylphenyl)amino]carbonyl}amino)phenoxy]pyridin-2-yl}-1H-pyrrol-3-yl)carbonyl]amino}pentanedioate]	8.22	7.92	7.51	8.05	8.70
Cc1ccc(F)c(NC(=O)Nc2ccc(Oc3ccnc(-c4cc(C(=O)OCCCN5CCOCC5)c[nH]4)c3)cc2)c1 [Example 274, 3-morpholin-4-ylpropyl 5-{4-[4-({[(2-fluoro-5-methylphenyl)amino]carbonyl}amino)phenoxy]pyridin-2-yl}-1H-pyrrole-3-carboxylate]	7.96	7.57		7.80	8.00
CCOC(=O)CCNC(=O)c1c[nH]c(-c2cc(Oc3ccc(NC(=O)Nc4cc(C)ccc4F)c(F)c3)ccn2)c1 [Example 231, ethyl 3-{[(5-{4-[3-fluoro-4-({[(2-fluoro-5-methylphenyl)amino]carbonyl}amino)phenoxy]pyridin-2-yl}-1H-pyrrol-3-yl)carbonyl]amino}propanoate]		7.37	7.49		
Cc1ccc(F)c(NC(=O)Nc2ccc(Oc3ccnc(-c4cc(C(=O)N5CCNCC5)c[nH]4)c3)cc2F)c1 [Example 221, 1-(2-fluoro-5-methylphenyl)-3-[2-fluoro-4-({2-[4-(piperazin-1-ylcarbonyl)-1H-pyrrol-2-yl]pyridin-4-yl}oxy)phenyl]urea]	7.96	7.72		8.15	7.82
Cc1ccc(F)c(NC(=O)Nc2ccc(Oc3ccnc(-c4cc(C(=O)NCCNC(=O)OC(C)(C)C)c[nH]4)c3)cc2F)c1 [Example 216, tert-butyl (2-{[(5-{4-[3-fluoro-4-({[(2-fluoro-5-methylphenyl)amino]carbonyl}amino)phenoxy]pyridin-2-yl}-1H-pyrrol-3-yl)carbonyl]amino}ethyl)carbamate]	7.77	7.23	6.67	7.80	
Cc1ccc(F)c(NC(=O)Nc2ccc(Oc3ccnc(-c4cc(C(=O)NCCCNC(=O)OC(C)(C)C)c[nH]4)c3)cc2F)c1 [Example 212, tert-butyl (3-{[(5-{4-[3-fluoro-4-({[(2-fluoro-5-methylphenyl)amino]carbonyl}amino)phenoxy]pyridin-2-yl}-1H-pyrrol-3-yl)carbonyl]amino}propyl)carbamate]	7.89	7.35		7.70	8.22

Continued, values first:

pIC50 [1]	pIC50 [2]	pIC50 [3]	pIC50 [4]	pIC50 [5]	Structure (SMILES)
8.05	7.70		7.80	8.30	COC(=O)CN(CCCNC(=O)c1c[nH]c(-c2cc(Oc3ccc(NC(=O)Nc4cc(C)ccc4F)cc3)ccn2)c1)CC(=O)OC [Example 232, dimethyl 2,2′-[(3-{[(5-{4-[4-({[(2-fluoro-5-methylphenyl)amino]carbonyl}amino)phenoxy]pyridin-2-yl}-1H-pyrrol-3-yl)carbonyl]amino}propyl)imino]diacetate]
8.30	7.47		7.89	8.40	COC(=O)CN(CCNC(=O)c1c[nH]c(-c2cc(Oc3ccc(NC(=O)Nc4cc(C)ccc4F)c(F)c3)ccn2)c1)CC(=O)OC [Example 215, dimethyl 2,2′-[(2-{[(5-{4-[3-fluoro-4-({[(2-fluoro-5-methylphenyl)amino]carbonyl}amino)phenoxy]pyridin-2-yl}-1H-pyrrol-3-yl)carbonyl]amino}ethyl)imino]diacetate]
8.05	7.92		8.10	8.52	COC(=O)CNC(=O)c1c[nH]c(-c2cc(Oc3ccc(NC(=O)Nc4cc(C)ccc4F)c(F)c3)ccn2)c1 [Example 211, methyl {[(5-{4-[3-fluoro-4-({[(2-fluoro-5-methylphenyl)amino]carbonyl}amino)phenoxy]pyridin-2-yl}-1H-pyrrol-3-yl)carbonyl]amino}acetate]
	7.47	7.49			COC(=O)CCNC(=O)c1c[nH]c(-c2cc(Oc3ccc(NC(=O)Nc4cc(C)ccc4F)c(F)c3)ccn2)c1 [Example 175, methyl 3-{[(5-{4-[3-fluoro-4-({[(2-fluoro-5-methylphenyl)amino]carbonyl}amino)phenoxy]pyridin-2-yl}-1H-pyrrol-3-yl)carbonyl]amino}propanoate]
8.00	7.46		7.77	7.92	COC(=O)CCCOC(=O)c1c[nH]c(-c2cc(Oc3ccc(NC(=O)Nc4cc(C)ccc4F)cc3)ccn2)c1 [Example 165, 4-methoxy-4-oxobutyl 5-{4-[4-({[(2-fluoro-5-methylphenyl)amino]carbonyl}amino)phenoxy]pyridin-2-yl}-1H-pyrrole-3-carboxylate]
8.05	7.70		8.05	8.00	COC(=O)[C@@H]1C[C@@H](O)CN1CCNC(=O)c1c[nH]c(-c2cc(Oc3ccc(NC(=O)Nc4cc(C)ccc4F)cc3)ccn2)c1 (relative stereo) [Example 161, methyl rel-(2R,4S)-1-(2-{[(5-{4-[4-({[(2-fluoro-5-methylphenyl)amino]carbonyl}amino)phenoxy]pyridin-2-yl}-1H-pyrrol-3-yl)carbonyl]amino}ethyl)-4-hydroxypyrrolidine-2-carboxylate]
	7.42	7.11			COC(=O)CCCNC(=O)c1c[nH]c(-c2cc(Oc3ccc(NC(=O)Nc4cc(C)ccc4F)cc3)ccn2)c1 [Example 176, methyl 4-{[(5-{4-[4-({[(2-fluoro-5-methylphenyl)amino]carbonyl}amino)phenoxy]pyridin-2-yl}-1H-pyrrol-3-yl)carbonyl]amino}butanoate]
8.00	7.57		7.72	8.40	Cc1ccc(F)c(NC(=O)Nc2ccc(Oc3ccnc(-c4cc(C(=O)NN)c[nH]4)c3)cc2)c1 [Example 241, 1-(2-fluoro-5-methylphenyl)-3-[4-({2-[4-(hydrazinocarbonyl)-1H-pyrrol-2-yl]pyridin-4-yl}oxy)phenyl]urea]
